Assay results published in patent US4544512A, “Tridecyloxy- or tetradecyloxy-propane derivatives” (Takeda Chemical Industries, Ltd., priority 1980, dated 1985).
Values after ≈ are worked out from the molar mass of the structure shown.

Columns and labels:
[1] = test system: spontaneous myeloid leukemia M1 cells; assay: Growth inhibition of cultured spontaneous mouse myeloid leukemia M1 cells (GD50); assay type: cell-based, mice (SL-strain); conditions: for IC50: Mus musculus, 72 h, 3 days, 37° C., Trypan Blue dye-exclusion, M1 Resistant clone; for B/A (GD50 normal bone marrow cells / GD50 M1 cells): ratio of GD50 values, 4320 min
Description: (§1) BALB/c mice at a concentration of 1 μg/ml (Cancer Res. 39, pp. 4681-4686 (1979)). The present inventors conducted comparative tests between octadecyl phospholipid and the corresponding tridecyl compound as well as tetradecyl compound on the activity (GD50) to inhibit the multiplication of spontaneous myeloid leukemia cells M1 in mice. […] The effect on the corresponding normal cells, i.e. on the myeloid cells of normal mice, is far weaker in the tetradecyl compounds. Therefore, in view of the balance of the inhibiting activity against multiplication of tumor cells and the safety (Chemotherapy Coefficient), it can be said that tetradecyl phospholipid is preferable to octadecyl phospholipid.
(§2) By employing Eagle's minimum essential medium supplemented with 10% heat-inactivated calf serum, incubation of spontaneous myeloid leukemia M1 cells (Resistant clone) harvested from mice (SL-strain) and normal bone marrow cells of mice of the same strain was conducted, in the presence or absence of the test compound in various concentrations, in a humified CO2 incubator at 37° C. for 3 days. The number of viable cells was determined by the Trypan Blue Stain dye-exclusion test. The concentration of the tested compound for 50% inhibiting the proliferation of M1 cells or normal bone marrow cells (GD50) was determined, and the result was shown in Table 1.

normal bone marrow cells = assay: Growth inhibition of normal mouse bone marrow cells (GD50); assay type: cell-based, mice (SL-strain); conditions: Bone marrow cell, 72 h, 3 days, 37° C., Trypan Blue dye-exclusion, read-out: GD50 Normal mouse bone marrow cells (B)
Description: as §1, §2

CCCCCCCCCCCCCCCCCCOCC(COP(=O)([O-])OCC[N+](C)(C)C)OC (stereo not drawn) [drawing 17, reference compound]
IC50 [1]: 0.6 mg/L (≈ 1.15 µM)
B/A (GD50 normal bone marrow cells / GD50 M1 cells) [1]: 25
IC50 (normal bone marrow cells): 15 mg/L (≈ 28.6 µM)

CCCCCCCCCCCCCCOCC(COP(=O)([O-])OCC[N+](C)(C)C)OC (stereo not drawn) [drawing 18]
IC50 [1]: 1.2 mg/L (≈ 2.57 µM)
B/A (GD50 normal bone marrow cells / GD50 M1 cells) [1]: 33
IC50 (normal bone marrow cells): 40 mg/L (≈ 85.5 µM)
